Literature values, collected in US10092609B2, “Process for preparing medicinal mycological preparations” (priority 2015, dated 2018).

Conditions: in vivo

Structure (SMILES): CC[C@H](C)C(=O)O[C@H]1C[C@@H](C)C=C2C=C[C@H](C)[C@H](CC[C@@H]3C[C@@H](O)CC(=O)O3)[C@H]21 [lovastatin]
- reduction of “bad” LDL-cholesterol in circulation: about 20%
